In patent publication US20170071204A1, “ACTIVE COMPOUND COMBINATIONS HAVING IN[…]” (priority 2014, published 2017):

Legend:
Type in all cases: in vivo
[1] = system: two spotted spidermite (Tetranychus urticae); test: Tetranychus urticae spray test OP-resistant (French bean leaf disks); conditions: for Efficacy in % after 2 d: mortality after 2 d
Description: (§1) The expected activity for a given combination of two active compounds can be calculated according to S. R. Colby, Weeds 15 (1967), 20-22 as follows:
(§2) • X is the kill rate, expressed in % of the untreated control, when active compound A is applied at an application rate of m g/ha or at a concentration of m ppm, • Y is the kill rate, expressed in % of the untreated control, when active compound B is applied at an application rate of n g/ha or at a concentration of n ppm and • E is the kill rate, expressed in % of the untreated control, when active compounds A and B is applied at application rates of m and n g/ha or at a concentration of m and n ppm, then
(§3) If the observed insecticidal efficacy of the combination is higher than the one calculated as “E”, then the combination of the two compounds is more than additive, i.e., there is a synergistic effect.
(§4) Solvent: 78.0 parts by weight acetone • 1.5 parts by weight dimethylformamide Emulsifier: alkylarylpolyglycol ether
(§5) To produce a suitable preparation of active compound, 1 part by weight of active compound is mixed with the stated amount of solvents and is diluted with water, containing an emulsifier concentration of 1000 ppm, to the desired concentration. To produce a suitable preparation of a spore suspension the spores are diluted with emulsifier containing water to the desired concentration. Further test concentrations are prepared by dilution with emulsifier containing water.
French bean (Phaseolus vulgaris) leaf disks which are heavily infested with all stages of the two spotted spidermite (Tetranychus urticae), are sprayed with a preparation of the active ingredient of the desired concentration.
After the specified period of time, mortality in % is determined. 100% means all spider mites have been killed and 0% means none of the spider mites have been killed. The mortality values determined thus are recalculated using the Colby-formula (see sheet 1).

[2] = system: mustard beetle larvae (Phaedon cochleariae); test: Phaedon cochleariae spray test (Chinese cabbage leaf disks); conditions: mortality after 6 d
Description: as §1, §2, §3
Solvent: 78.0 parts by weight of acetone • • 1.5 parts by weight of dimethylformamide Emulsifier: alkylarylpolyglycol ether
as §5
Chinese cabbage (Brassica pekinensis) leaf disks are sprayed with a preparation of the active ingredient of the desired concentration. Once dry, the leaf disks are infested with mustard beetle larvae (Phaedon cochleariae).
After the specified period of time, mortality in % is determined. 100% means all beetle larvae have been killed and 0% means none of the beetle larvae have been killed. The mortality values determined thus are recalculated using the Colby-formula (see sheet 1).

[3] = system: green peach aphid (Myzus persicae); test: Myzus persicae spray test (Chinese cabbage leaf disks); conditions: for Efficacy in % after 1 d: mortality after 1 d; for Efficacy in % after 6 d: mortality after 6 d
Description: as §1, §2, §3, §4, §5
Chinese cabbage (Brassica pekinensis) leaf disks infected with all instars of the green peach aphid (Myzus persicae), are sprayed with a preparation of the active ingredient of the desired concentration.
After the specified period of time, mortality in % is determined. 100% means all aphids have been killed; 0% means none of the aphids have been killed. The mortality values determined thus are recalculated using the Colby-formula (see sheet 1).

In the case of `CCOP(=S)(OCC)Oc1nc(Cl)c(Cl)cc1Cl` [Chlorpyrifos], the “Efficacy in % after 6 d” value ([1]; 4 g ai/ha, mortality after 6 d) is reported as 0% and the “Efficacy in % after 2 d” value ([1]; 20 g ai/ha) is reported as 0%.
`N#CCNC(=O)c1cnccc1C(F)(F)F` [Flonicamid] was tested, and the “Efficacy in % after 2 d” value ([1]; 4 g ai/ha) was 0%.
With `O=C1C=C(N(Cc2ccc(Cl)nc2)CC(F)F)CO1` [Flupyradifurone] the “Efficacy in % after 2 d” value ([1]; 0.8 g ai/ha) was 0% and the “Efficacy in % after 2 d” value ([1]; 4 g ai/ha) was 0%.
`O=C(NC(=O)c1c(F)cccc1F)Nc1cc(Cl)c(OC(F)(F)C(F)C(F)(F)F)cc1Cl` (centres unmarked) [Lufenuron] was tested, and the “Efficacy in % after 2 d” value ([1]; 20 g ai/ha) was 0%.
With `O=C(/N=c1\ccccn1Cc1ccc(Cl)nc1)C(F)(F)F` [N-[(2E)-1-[(6-chloropyridin-3-yl)methyl]pyridin-2(1H)-ylidene]-2,2,2-trifluoroacetamide] the “Efficacy in % after 6 d” value ([2]; 100 g ai/ha) was 0%.
In the case of `O=C(NC(=O)c1c(F)cccc1F)Nc1ccc(OC(F)(F)C(F)OC(F)(F)F)c(Cl)c1` (centres unmarked) [Novaluron], the “Efficacy in % after 6 d” value ([2]; 100 g ai/ha) is reported as 0%.
In the case of Abamectin, the “Efficacy in % after 6 d” value ([2]; 0.8 g ai/ha) is reported as 0%.
With Lepimectin the “Efficacy in % after 1 d” value ([3]; 4 g ai/ha) was 0%, the “Efficacy in % after 6 d” value ([3]; 4 g ai/ha) was 0% and the “Efficacy in % after 1 d” value ([3]; 20 g ai/ha) was 0%. The “Efficacy in % after 6 d” value ([3]; 20 g ai/ha) was 0%.
Milbemectin was tested, and the “Efficacy in % after 6 d” value ([3]; 4 g ai/ha) was 0%.
